Experimental data reported in article PMC6792352, “Limited Chemical Structural Diversity Found to Modulate Thyroid Hormone Receptor in the Tox21 Chemical Library” (Environmental Health Perspectives, 2019).
Where a name gives a salt, the structure may show the parent alone.

Test: in vitro
Settings: rat, gh3-tre-luc cells

Row | SMILES | CC50 at 24 h (AC50 (uM) modified / 1000) [µM] | other results
1 | O=C(O)c1cc(Cl)cc(Cl)c1O [3,5-Dichlorosalicylic acid] | > 90 | 
2 | CCC(c1ccccc1)c1noc(CCN(CC)CC)n1 (stereo not shown) [Proxazole citrate] | > 50 | 
3 | CC(=O)Nc1ccccc1O [2-Acetamidophenol] | > 90 | 
4 | CC(C)=CCC[C@H](C)CCO [(S)-(-)-beta-Citronellol] | > 90 | 
5 | N#Cc1ccccc1 [Benzonitrile] | > 90 | 
6 | CC(C)=CC(=O)O [3,3-Dimethylacrylic acid] | > 90 | 
7 | [O-][S+](c1cc(Cl)cc(Cl)c1O)c1cc(Cl)cc(Cl)c1O [Bithionoloxide] | 46 | 
8 | CCOC(=O)CCc1ccccc1 [Ethyl hydrocinnamate] | > 90 | 
9 | NCc1cccnc1 [3-(Aminomethyl)pyridine] | > 90 | 
10 | Cc1ncc([N+](=O)[O-])n1CC(C)O (stereo not shown) [Secnidazole] | > 50 | 
11 | CCCCC(CC)COC(=O)COc1cc(Cl)c(Cl)cc1Cl (stereo not shown) [2,4,5-T 2-Ethylhexyl] | > 90 | 
12 | Brc1cccc(-c2ccccc2)c1 [3-Bromobiphenyl] |  | CC50 at 24 h (AC50 (uM) modified / 1000, Tox21_110001=Tox21_200121, viability, 1 nM T3 present, 24 h): > 90 µM
13 | CCCCOCN(C(=O)CCl)c1c(CC)cccc1CC [Butachlor] | 49.4 | 
14 | C[C@H](N)C(=O)c1ccccc1 [(-)- (S)-Cathinone hydrochloride] | > 50 | 
15 | CCCCCCCCCCCCCCCCCC(=O)OC[C@@H](O)[C@H]1OC[C@H](O)[C@H]1O [Anhydrosorbitol stearate] | > 50 | 
16 | O=C(CCCCCCCCCCCCC1CCCC1)Nc1ccc(S(=O)(=O)c2ccc(NC(=O)CCCCCCCCCCCCC3CCCC3)cc2)cc1 [Chaulmosulfone] | > 50 | 
17 | C=CC(=O)NC(C)(C)C [tert-Butylacrylamide] | > 90 | 
18 | BrC/C=C/CBr [(E)-1,4-Dibromo-2-butene] | > 20 | 
19 | O=NN1CCNCC1 [N-Nitrosopiperazine] | > 100 | 
20 | C=CC(=O)NC(C)C [N-Isopropylacrylamide] | > 90 | 
21 | CC(C)(c1cc(Br)c(OCCO)c(Br)c1)c1cc(Br)c(OCCO)c(Br)c1 | 44.3 | 

Row | SMILES | CC50 at 24 h (AC50 (uM) modified / 1000) [µM] | other results
22 | CC(=O)c1ccc2c(c1)N(CCCN(C)C)c1ccccc1S2 [Acetopromazine maleate] | 9.14 | 
23 | C[C@]12CC[C@@H]3c4ccc(OS(=O)(=O)O)cc4CC[C@H]3[C@@H]1CCC2=O [Estropipate] | > 50 | 
24 | NC(=O)c1ccc([N+](=O)[O-])cc1Cl [2-Chloro-4-nitrobenzamide] | > 90 | 
25 | CCOC(C)OCC [Acetal] | > 90 | 
26 | NC(=O)c1nc(-c2cccc(-c3cc(F)ccc3OCC(F)(F)C(F)(F)F)c2)n[nH]1 [MK-274] | 53.5 | 
27 | c1cnc2cc3c(cc2n1)[C@@H]1CNC[C@H]3C1 [Varenicline tartrate] | > 50 | 
28 | Cc1c(NC(C)C)c(=O)n(-c2ccccc2)n1C [Ramifenazone] | > 50 | 
29 | OC(c1ccc(F)cc1)(c1cncnc1)c1ccccc1Cl (stereo not shown) [Nuarimol] | > 90 | 
30 | NS(=O)(=O)c1cc(C2(O)NC(=O)c3ccccc32)ccc1Cl (stereo not shown) [Chlorthalidone] | > 20 | 
31 | O=S(=O)(O)c1ccc(Cl)cc1 [4-Chlorobenzenesulfonic acid] | > 90 | 
32 | C[N+](C)(C)CCOC(N)=O [Carbachol] | > 50 | 
33 | CC(C)(C)N [tert-Butylamine] | > 90 | 
34 | Nc1ncnc(Nc2ccc(Cl)cc2)n1 [Chlorazanil] | > 50 | 
35 | Brc1c(Br)c(Br)c(Br)c(Br)c1Br [Hexabromobenzene] | > 5 | 
36 | NC(=O)c1ccc([N+](=O)[O-])cc1 [4-Nitrobenzamide] | > 90 | 
37 | CC(C)Nc1ccccc1 [N-Isopropylaniline] | > 90 | 
38 | Cn1c([N+](=O)[O-])cnc1COC(N)=O [Ronidazole] | > 50 | 
39 | COc1ccc(C(=O)N2CCCC2=O)cc1 [Aniracetam] | > 50 | 
40 | CCNP(=S)(OC)O/C(C)=C/C(=O)OC(C)C (stereo not shown) [Propetamphos] |  | CC50 at 24 h (AC50 (uM) modified / 1000, Tox21_110001=Tox21_300863, viability, 1 nM T3 present, 24 h): > 90 µM
41 | CCn1cc[n+](C)c1C [1-Ethyl-2,3-dimethylimidazolium bromide] | > 90 | 
42 | CC1(C)CC(N=C=O)CC(C)(CN=C=O)C1 (stereo not shown) [Isophorone diisocyanate] | > 90 | 

Row | SMILES | CC50 at 24 h (AC50 (uM) modified / 1000) [µM] | other results
43 | CC1(C)OC(=O)NC1=O [Dimethadione] | > 90 | 
44 | COc1cc(CC(C)N)c(OC)cc1Br (stereo not shown) [Brolamfetamine hydrobromide] |  | CC50 at 24 h (AC50 (uM) modified / 1000, Tox21_110001=Tox21_113494, viability, 1 nM T3 present, 24 h): 25.6 µM
45 | CCCCC1C(=O)N(c2ccccc2)N(c2ccc(O)cc2)C1=O (stereo not shown) [Oxyphenbutazone] | 3.72 | 
46 | c1ccc(Oc2ccccc2)cc1 [Diphenyl oxide] | > 90 | 
47 | CCNC(=O)C1CC(C)CCC1C(C)C (stereo not shown) [N-Ethyl-4-menthane-3-carboxamide] | > 90 | 
48 | ClC(Cl)=C(Cl)C(Cl)=C(Cl)Cl [Hexachloro-1,3-butadiene] | > 90 | 
49 | O=C(N=NC(=O)OCc1ccccc1)OCc1ccccc1 [Dibenzyl diazene-1,2-dicarboxylate] | > 90 | 
50 | COC(=O)CC[C@H](N)C(=O)O [(5)-Methyl L-glutamate] | > 50 | 
51 | OCC1CO1 (stereo not shown) [Glycidol] | > 90 | 
52 | CC1=C(C(=O)OCCN(Cc2ccccc2)c2ccccc2)C(c2cccc([N+](=O)[O-])c2)C(P2(=O)OCC(C)(C)CO2)=C(C)N1 (stereo not shown) [Efonidipine] | 23.8 | 
53 | O=C(O)c1ccc(Cl)cc1Cl [2,4-Dichlorobenzoic acid] | > 90 | 
54 | COCCOCCOCCOCCOC [2,5,8,11,14-Pentaoxapentadecane] | > 90 | 
55 | CCCCCCCCCC/C=C/C1CC(=O)OC1=O (stereo not shown) [3-(Dodecenyl)dihydro-2,5-furandione] | > 90 | 
56 | CCCCCCCCCCCCOCCO [2-(Dodecyloxy)ethanol] | > 90 | 
57 | CCOCC(C)O (stereo not shown) [1-Ethoxy-2-propanol] | > 90 | 
58 | Cc1cc(C(C)(C)C)c(O)c(C)c1CC1=NCCN1 [Oxymetazoline] | > 50 | 
59 | Oc1ccccc1 [Phenol] | > 50 | 
60 | CN [Methylammonium nitrate] | > 100 | 
61 | O=C(O)c1cc(C(=O)O)cc(C(=O)O)c1 [1,3,5-Benzenetricarboxylic acid] | > 90 | 
62 | CCCCOC(=O)C(C)O (stereo not shown) [Butyl lactate] | > 90 | 
63 | COc1ccc2c3c1O[C@H]1[C@@H](O)C=C[C@H]4[C@@H](C2)NCC[C@@]341 [N-Norcodeine hydrochloride] |  | CC50 at 24 h (AC50 (uM) modified / 1000, Tox21_110001=Tox21_112824, viability, 1 nM T3 present, 24 h): > 100 µM

Row | SMILES | CC50 at 24 h (AC50 (uM) modified / 1000) [µM] | other results
64 | O=C(/C=C/c1ccc(O)c(O)c1)O[C@@H](C(=O)O)[C@@H](OC(=O)/C=C/c1ccc(O)c(O)c1)C(=O)O [L-Cichoric acid] | > 90 | 
65 | COc1ccc(NC(C)=O)cc1 [N-(4-Methoxyphenyl)acetamide] | > 90 | 
66 | Nc1nc2c(c(=O)[nH]1)N(C=O)C(CNc1ccc(C(=O)N[C@@H](CCC(=O)O)C(=O)O)cc1)CN2 (stereo partly shown) [Calcium folinate pentahydrate] | > 20 | 
67 | Oc1c(I)cc(I)c2cccnc12 [Iodoquinol] | > 50 | 
68 | O=C1CCCCCCCCCCC(=O)OCCO1 [1,4-Dioxacyclohexadecane-5,16-dione] | > 90 | 
69 | CN(C)C(=O)NC1(c2ccccc2)CCN(CC[C@@]2(c3ccc(F)c(F)c3)CN(C(=O)c3ccccc3)CCO2)CC1 [SR144190] | 55.6 | 
70 | COc1cc(OC)nc(NC(=O)NS(=O)(=O)c2ncccc2C(=O)N(C)C)n1 [Nicosulfuron] | > 90 | 
71 | CCN1CCc2nc(N)oc2CC1 [Azepexole hydrochloride] | > 50 | 
72 | c1ccc(-c2nnn[nH]2)cc1 [5-Phenyl-1H-tetrazole] | > 90 | 
73 | O=S(O)CNc1ccc(S(=O)(=O)c2ccc(NCS(=O)O)cc2)cc1 [Adesulfone sodium] | > 50 | 
74 | CC(C)(C)C1CCC(O)CC1 (stereo not shown) [4-tert-Butylcyclohexanol] | > 90 | 
75 | CN1[C@@H]2CC[C@H]1CC(NC(=O)n1c(=O)[nH]c3ccccc31)C2 (stereo partly shown) [Itasetron] | > 50 | 
76 | CC(C)(Oc1ccc(C2CC2(Cl)Cl)cc1)C(=O)O (stereo not shown) [Ciprofibrate] | > 90 | 
77 | O=C(O)C(Cl)Br (stereo not shown) [Bromochloroacetic acid] |  | CC50 at 24 h (AC50 (uM) modified / 1000, Tox21_110001=Tox21_200894, viability, 1 nM T3 present, 24 h): > 90 µM
78 | Oc1ccc(Cl)c2cccnc12 [Cloxyquin] | 7.71 | 
79 | c1ccc2c(c1)c1cccc3ccc4cccc2c4c31 [Benzo(e)pyrene] | > 90 | 
80 | CCC=O [Propanal] | > 90 | 
81 | CC1(C)O[C@@H]2C[C@H]3[C@@H]4CCC5=CC(=O)C=C[C@]5(C)[C@@]4(F)[C@@H](O)C[C@]3(C)[C@]2(C(=O)CO)O1 [Triamcinolone acetonide] | > 90 | 
82 | N#CC(Cl)Cl [Dichloroacetonitrile] | 72.9 | 
